The values below come from ChEMBL document CHEMBL1857833, “Screening and optimization of specific chemical series against human African Trypanosomiasis (HAT)”.

In general, IC50 refers to the concentration at which inhibition is half-maximal.

In data set [1] the test system is Trypanosoma brucei. Nature of the data set: DNDI: Inhibition of Human African Trypanosomiasis, SBRI 427, in vitro. Format: functional, organism-based.
Data set [2] is described as follows: DNDI: Cytotoxicity against L929 mouse fibroblasts, 72 hour. Format: toxicity, cell-based. The settings on record: mouse, L929 mouse fibroblasts.
A short description of data set [3]: DNDI: Cytotoxicity against L929 mouse fibroblasts, CYTO-SP, 24 hour. Format: toxicity, cell-based. Conditions: mouse, L929 mouse fibroblasts.
Setting [4] is: Trypanosoma brucei, SBRI 427, read-out: IC50.

Converted amounts (≈) assume the structure as drawn. “And” between values parts separate entries of the source, which are not always exact repeats. Equal entries are not always repeated.

With `O=c1cc(-c2ccccc2)[nH]c2cc(-c3cccc(F)c3)nn12`, the IC50 in data set [1] (setting [4]) was over 5 µg/mL. In data set [2], this molecule yielded a half-inhibitory concentration (IC50) at 72 h of 4.88 µg/mL (≈ 16 µM).
As to `Brc1nn2ccnc2s1`, in data set [1] (setting [4]), the 50% inhibitory concentration (IC50) was over 5 µg/mL. In data set [2], this molecule displayed an IC50 at 72 h of over 10 µg/mL.
The corresponding values for `Fc1ccc(-c2cc3nc(-c4ccccc4)cc(NCCCN4CCOCC4)n3n2)cc1` are over 5 µg/mL and over 10 µg/mL.
As for `COc1ccc(C(=O)Cc2ccccc2)cc1`, the IC50 at 24 h in data set [3] is over 50 µg/mL. In data set [1] (setting [4]), the half-inhibitory concentration (IC50) is over 5 µg/mL.
For the molecule `Fc1ccc(-c2cc3nc(-c4ccccc4)cc(NCCCN4CCCC4)n3n2)cc1`, in data set [1] (setting [4]), the IC50 came out at 3.65 µg/mL (≈ 8.78 µM). This molecule gave an IC50 at 72 h in data set [2] of 6.92 µg/mL (≈ 16.7 µM).
Taken in the same sequence, the figures for `Fc1ccc(-c2cc3nc(-c4ccccc4)cc(NCCN4CCOCC4)n3n2)cc1` were over 5 µg/mL and over 10 µg/mL.
`CO/N=C/c1ccccc1-c1ccccc1`: the IC50 at 24 h in data set [3] was over 50 µg/mL. For the same molecule, in data set [1] (setting [4]), the IC50 was over 5 µg/mL.
As for `CC1CCC(N/C(=N\O)c2cccnc2Oc2ccc(-n3cncn3)cc2)CC1` (stereo unspecified), in data set [3], the IC50 at 24 h was over 50 µg/mL.
Consider `CCN(CC)CCCNc1cc(-c2ccccc2)nc2cc(-c3cccc(F)c3)nn12`, for which, in data set [1] (setting [4]), the IC50 came out at 1.05 µg/mL (≈ 2.51 µM). Also, half-maximal inhibition in data set [2] (IC50 at 72 h) required 2.51 µg/mL (≈ 6.01 µM).
With `Fc1ccc(-c2cc3nc(-c4ccccc4)cc(NCCN4CCCC4)n3n2)cc1`, in data set [1] (setting [4]), the concentration for half-maximal inhibition (IC50) came to 1.68 µg/mL (≈ 4.18 µM). The molecule further had an IC50 at 72 h in data set [2] of 4.94 µg/mL (≈ 12.3 µM).
As for `CN(C)CCNc1cc(-c2ccccc2)nc2cc(-c3cccc(F)c3)nn12`, the IC50 in data set [1] (setting [4]) turned out to be 2.07 µg/mL (≈ 5.51 µM). In addition, the IC50 at 72 h in data set [2] worked out at 1.78 µg/mL (≈ 4.74 µM).
Taken in the same sequence, the figures for `Cc1cc(NCCCN2CCCC2=O)n2nc(-c3cccc(F)c3)cc2n1` were over 5 µg/mL and over 10 µg/mL.
`CC(C)(C)c1cc(=O)n2nc(-c3ccc(F)cc3)cc2[nH]1`: in data set [1] (setting [4]), the IC50 was over 5 µg/mL. Also, the IC50 at 72 h in data set [2] was over 10 µg/mL.
`Cc1cc(N)nn1Cc1coc(-c2ccc(OC(F)(F)F)cc2)n1` gave an IC50 at 24 h in data set [3] of over 50 µg/mL. The IC50 in data set [1] (setting [4]) worked out at 1.18 µg/mL (≈ 3.49 µM).
In data set [3], `CCCCNCc1coc(-c2ccc(C(C)(C)C)cc2)n1` came in with an IC50 at 24 h of 28.1 µg/mL (≈ 98.1 µM). In addition, the IC50 in data set [1] was 1.84 µg/mL and 0.87 µg/mL.
For `CC(C)(C)OC(=O)N1CCN(c2cc(C(C)(C)C)nc3cc(-c4ccc(F)cc4)nn23)CC1`, in data set [1] (setting [4]), the IC50 is over 5 µg/mL. This molecule also showed a concentration for half-maximal inhibition (IC50) at 72 h in data set [2] of over 10 µg/mL.
The molecule `COc1cc(C)ccc1Oc1nc(C)ccc1/C(=N/O)NCC(C)C` had an IC50 at 24 h in data set [3] of over 50 µg/mL.
Molecule `CCO/N=C/c1ccc(OC)cc1` registered an IC50 at 24 h in data set [3] of over 50 µg/mL. Further, in data set [1] (setting [4]), the IC50 was over 5 µg/mL.
`Fc1cccc(-c2cc3nc(-c4ccccc4)cc(NCCN4CCOCC4)n3n2)c1`: the IC50 in data set [1] (setting [4]) was over 5 µg/mL. The molecule also showed an IC50 at 72 h in data set [2] of over 10 µg/mL.
`COc1ccc(/C=N/OCc2ccccc2)cc1` returned an IC50 at 24 h in data set [3] of over 50 µg/mL. Further, in data set [1] (setting [4]), the IC50 is over 5 µg/mL.
With `Cc1cc(N2CCN(C(=O)OC(C)(C)C)CC2)n2nc(-c3cccc(F)c3)cc2n1`, the concentration for half-maximal inhibition (IC50) in data set [1] (setting [4]) is over 5 µg/mL. Also, the IC50 at 72 h in data set [2] is over 10 µg/mL.
`CC(C)CO/N=C/c1ccccc1-c1ccccc1` had an IC50 at 24 h in data set [3] of over 50 µg/mL. Moreover, in data set [1] (setting [4]), the IC50 is over 5 µg/mL.
`Cc1ccc(Oc2ccc(/C(=N/O)NCC3CC3)cn2)c(C)c1` returned an IC50 at 24 h in data set [3] of over 50 µg/mL.
As to `Fc1cccc(-c2cc3nc(-c4ccccc4)cc(NCCN4CCCC4)n3n2)c1`, the IC50 in data set [1] (setting [4]) turned out to be 2.22 µg/mL (≈ 5.53 µM). Half-maximal inhibition in data set [2] (IC50 at 72 h) required 1.54 µg/mL (≈ 3.84 µM).
Turning to `CN(C)CC(C)(C)CNc1cc(-c2ccccc2)nc2cc(-c3ccc(F)cc3)nn12`, in data set [1] (setting [4]), the IC50 was over 5 µg/mL. In addition, in data set [2], the IC50 at 72 h is over 10 µg/mL.
As to `COc1ccc(-c2cc3[nH]c(-c4ccccc4)cc(=O)n3n2)cc1`, in data set [1] (setting [4]), the 50% inhibitory concentration (IC50) was over 5 µg/mL. Also, in data set [2], the IC50 at 72 h is over 10 µg/mL.
With `Cc1ccc(/C(=N/O)NC2CCC(C)CC2)c(OCc2ccccn2)n1` (stereo unspecified), in data set [3], the IC50 at 24 h was over 50 µg/mL.
In the case of `CC(C)(C)OC(=O)N1CCC(Nc2cc(-c3ccccc3)nc3cc(-c4ccc(F)cc4)nn23)C1` (stereo unspecified), the concentration for half-maximal inhibition (IC50) in data set [1] (setting [4]) is over 5 µg/mL. This molecule gave an IC50 at 72 h in data set [2] of over 10 µg/mL.
With `CN(C)CC(C)(C)CNc1cc(-c2ccccc2)nc2cc(-c3cccc(F)c3)nn12`, in data set [1] (setting [4]), the IC50 is over 5 µg/mL. Also, in data set [2], the IC50 at 72 h was over 10 µg/mL.
In data set [3], `C=CCO/N=C/c1ccccc1-c1ccccc1` displayed an IC50 at 24 h of over 50 µg/mL. For the same molecule, the IC50 in data set [1] (setting [4]) was over 5 µg/mL.
In the case of `Fc1cccc(-c2cc3nc(-c4ccccc4)cc(NCCN4CCCCC4)n3n2)c1`, the 50% inhibitory concentration (IC50) in data set [1] (setting [4]) came to 3.82 µg/mL (≈ 9.19 µM). Also, in data set [2], the IC50 at 72 h came to 9.91 µg/mL (≈ 23.8 µM).
As to `Cc1cc(Oc2ccc(/C(=N/O)NCC3CC3)cn2)cc(C(C)C)c1`, in data set [3], the IC50 at 24 h was determined as 27 µg/mL (≈ 79.5 µM).
With `COc1ccc(/C(Cc2ccccc2)=N/O)cc1`, in data set [3], the IC50 at 24 h was over 50 µg/mL. For the same molecule, the IC50 in data set [1] (setting [4]) was over 5 µg/mL.
Take `Cc1cc(=O)n2nc(-c3cccc(F)c3)cc2[nH]1`: the IC50 in data set [1] (setting [4]) was over 5 µg/mL. For the same molecule, the concentration for half-maximal inhibition (IC50) at 72 h in data set [2] was over 10 µg/mL.
Taken in the same sequence, the figures for `NCCCNc1cc(-c2ccccc2)nc2cc(-c3cccc(F)c3)nn12` were 0.535 µg/mL (≈ 1.48 µM) and 1.57 µg/mL (≈ 4.34 µM).
The corresponding values for `Fc1ccc(-c2cc3nc(-c4ccccc4)cc(NCCN4CCCCC4)n3n2)cc1` are over 5 µg/mL and over 10 µg/mL.
Taken in the same sequence, the figures for `Cc1cc(NC2CCN(C(=O)OC(C)(C)C)C2)n2nc(-c3cccc(F)c3)cc2n1` (stereo unspecified) were over 5 µg/mL and over 10 µg/mL.
On to `COc1ccc(/C=N/OCC(C)C)cc1`, for which the IC50 at 24 h in data set [3] was over 50 µg/mL. In addition, in data set [1] (setting [4]), the IC50 is over 5 µg/mL.
